How the values were obtained:
[1] = target: Serine/threonine-protein kinase PLK2 (Homo sapiens) (UniProt Q9NYY3); details: Compound concentration 1000.0 nM
[2] = target: Tyrosine-protein kinase Fgr (Homo sapiens) (UniProt P09769); details: Compound concentration 1000.0 nM
[3] = target: Cyclin-dependent kinase 2 homolog (Plasmodium falciparum (isolate 3D7)) (UniProt P61075); details: Compound concentration 1000.0 nM
[4] = target: Mitogen-activated protein kinase kinase kinase 4 (Homo sapiens) (UniProt Q9Y6R4); details: Compound concentration 1000.0 nM
[5] = target: Cyclin-dependent kinase-like 3 (Homo sapiens) (UniProt Q8IVW4); details: Compound concentration 1000.0 nM
[6] = target: Serine/threonine-protein kinase 3 (Homo sapiens) (UniProt Q13188); details: Compound concentration 1000.0 nM
[7] = target: Casein kinase I isoform gamma-1 (Homo sapiens) (UniProt Q9HCP0); details: Compound concentration 1000.0 nM
[8] = target: Phosphatidylinositol 4-phosphate 3-kinase C2 domain-containing subunit beta (Homo sapiens) (UniProt O00750); details: Compound concentration 1000.0 nM
[9] = target: Muscarinic acetylcholine receptor M4 (Homo sapiens) (UniProt P08173); details: Compound concentration 10.0 uM
[10] = target: Mitogen-activated protein kinase kinase kinase 14 (Homo sapiens) (UniProt Q99558); details: Compound concentration 1000.0 nM
[11] = target: Dual specificity mitogen-activated protein kinase kinase 7 (Homo sapiens) (UniProt O14733); details: Compound concentration 1000.0 nM
[12] = target: Serine/threonine-protein kinase SIK3 (Homo sapiens) (UniProt Q9Y2K2); details: Compound concentration 1000.0 nM
[13] = target: Cyclin-dependent kinase 9 (Homo sapiens) (UniProt P50750); details: Compound concentration 1000.0 nM
[14] = tested on: Tyrosine-protein kinase ABL1 (Homo sapiens), P00519 [F317I]; details: Compound concentration 1000.0 nM
[15] = target: Mitogen-activated protein kinase kinase kinase kinase 4 (Homo sapiens) (UniProt O95819); details: Compound concentration 1000.0 nM
[16] = target: Insulin receptor-related protein (Homo sapiens) (UniProt P14616); details: Compound concentration 1000.0 nM
[17] = target: Serine/threonine-protein kinase PAK 6 (Homo sapiens) (UniProt Q9NQU5); details: Compound concentration 1000.0 nM
[18] = target: Uncharacterized serine/threonine-protein kinase SBK3 (Homo sapiens) (UniProt P0C264); details: Compound concentration 1000.0 nM
[19] = target: Ephrin type-A receptor 6 (Homo sapiens) (UniProt Q9UF33); details: Compound concentration 1000.0 nM
[20] = target: Serine/threonine-protein kinase Sgk2 (Homo sapiens) (UniProt Q9HBY8); details: Compound concentration 1000.0 nM
[21] = target: Aurora kinase B (Homo sapiens) (UniProt Q96GD4); details: Compound concentration 1000.0 nM
[22] = target: Mitogen-activated protein kinase 7 (Homo sapiens) (UniProt Q13164); details: Compound concentration 1000.0 nM
[23] = target: Atypical kinase COQ8A, mitochondrial (Homo sapiens) (UniProt Q8NI60); details: Compound concentration 1000.0 nM
[24] = target: Serine/threonine-protein kinase Nek7 (Homo sapiens) (UniProt Q8TDX7); details: Compound concentration 1000.0 nM
[25] = target: Activated CDC42 kinase 1 (Homo sapiens) (UniProt Q07912); details: Compound concentration 1000.0 nM
[26] = target: Cyclin-dependent kinase 18 (Homo sapiens) (UniProt Q07002); details: Compound concentration 1000.0 nM
[27] = target: Calcium/calmodulin-dependent protein kinase type II subunit alpha (Homo sapiens) (UniProt Q9UQM7); details: Compound concentration 1000.0 nM
[28] = tested on: Tyrosine-protein kinase ABL1 (Homo sapiens), P00519 [Q252H]; details: Compound concentration 1000.0 nM
[29] = target: Calcium/calmodulin-dependent protein kinase type 1B (Homo sapiens) (UniProt Q6P2M8); details: Compound concentration 1000.0 nM
[30] = target: Dual specificity protein kinase CLK2 (Homo sapiens) (UniProt P49760); details: Compound concentration 1000.0 nM
[31] = target: MAP kinase-activated protein kinase 5 (Homo sapiens) (UniProt Q8IW41); details: Compound concentration 1000.0 nM
[32] = target: Alpha-2C adrenergic receptor (Homo sapiens) (UniProt P18825); details: Compound concentration 10.0 uM
[33] = target: Myotonin-protein kinase (Homo sapiens) (UniProt Q09013); details: Compound concentration 1000.0 nM
[34] = target: Cytoplasmic tyrosine-protein kinase BMX (Homo sapiens) (UniProt P51813); details: Compound concentration 1000.0 nM
[35] = target: Ribosomal protein S6 kinase alpha-2 (Homo sapiens) (UniProt Q15349); details: Compound concentration 1000.0 nM
[36] = target: RAC-gamma serine/threonine-protein kinase (Homo sapiens) (UniProt Q9Y243); details: Compound concentration 1000.0 nM
[37] = tested on: Phosphatidylinositol 4,5-bisphosphate 3-kinase catalytic subunit alpha isoform (Homo sapiens), P42336 [M1043I]; details: Compound concentration 1000.0 nM
[38] = target: Dual specificity mitogen-activated protein kinase kinase 3 (Homo sapiens) (UniProt P46734); details: Compound concentration 1000.0 nM
[39] = tested on: Tyrosine-protein kinase ABL1 (Homo sapiens), P00519 [H396P]; details: Compound concentration 1000.0 nM
[40] = target: 5-hydroxytryptamine receptor 2A (Homo sapiens) (UniProt P28223); details: Compound concentration 10.0 uM
[41] = target: Phosphatidylinositol 3-kinase C2 domain-containing subunit gamma (Homo sapiens) (UniProt O75747); details: Compound concentration 1000.0 nM
[42] = tested on: Fibroblast growth factor receptor 3 (Homo sapiens), P22607 [G697C]; details: Compound concentration 1000.0 nM
[43] = target: Fibroblast growth factor receptor 4 (Homo sapiens) (UniProt P22455); details: Compound concentration 1000.0 nM
[44] = target: Muscarinic acetylcholine receptor M3 (Homo sapiens) (UniProt P20309); details: Compound concentration 10.0 uM
[45] = target: Mitogen-activated protein kinase kinase kinase 15 (Homo sapiens) (UniProt Q6ZN16); details: Compound concentration 1000.0 nM

Chain of Calcium/calmodulin-dependent protein kinase type II subunit alpha (Homo sapiens) (Q9UQM7 whole entry): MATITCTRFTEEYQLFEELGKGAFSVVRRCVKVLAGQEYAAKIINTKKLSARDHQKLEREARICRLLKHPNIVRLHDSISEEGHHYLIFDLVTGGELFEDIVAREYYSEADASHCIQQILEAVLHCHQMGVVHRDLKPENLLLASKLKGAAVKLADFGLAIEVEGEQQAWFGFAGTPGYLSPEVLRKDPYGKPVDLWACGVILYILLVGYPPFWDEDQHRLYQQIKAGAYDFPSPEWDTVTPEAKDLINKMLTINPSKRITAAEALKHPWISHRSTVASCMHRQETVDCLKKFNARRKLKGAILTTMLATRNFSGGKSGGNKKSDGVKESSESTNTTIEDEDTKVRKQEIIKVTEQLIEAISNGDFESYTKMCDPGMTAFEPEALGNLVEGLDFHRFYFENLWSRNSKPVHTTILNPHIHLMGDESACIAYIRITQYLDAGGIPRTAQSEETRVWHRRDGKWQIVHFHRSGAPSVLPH
Chain of Calcium/calmodulin-dependent protein kinase type 1B (Homo sapiens) (Q6P2M8 whole entry): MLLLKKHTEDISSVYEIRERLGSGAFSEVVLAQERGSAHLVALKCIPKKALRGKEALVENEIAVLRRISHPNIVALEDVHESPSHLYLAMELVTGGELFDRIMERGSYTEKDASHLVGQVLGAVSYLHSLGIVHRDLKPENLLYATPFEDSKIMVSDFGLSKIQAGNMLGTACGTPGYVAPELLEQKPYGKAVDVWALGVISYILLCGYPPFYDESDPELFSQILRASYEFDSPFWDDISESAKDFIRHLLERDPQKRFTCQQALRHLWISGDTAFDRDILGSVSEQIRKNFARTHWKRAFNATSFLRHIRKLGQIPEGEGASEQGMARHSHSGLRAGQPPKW
Chain of RAC-gamma serine/threonine-protein kinase (Homo sapiens) (Q9Y243 whole entry, canonical isoform): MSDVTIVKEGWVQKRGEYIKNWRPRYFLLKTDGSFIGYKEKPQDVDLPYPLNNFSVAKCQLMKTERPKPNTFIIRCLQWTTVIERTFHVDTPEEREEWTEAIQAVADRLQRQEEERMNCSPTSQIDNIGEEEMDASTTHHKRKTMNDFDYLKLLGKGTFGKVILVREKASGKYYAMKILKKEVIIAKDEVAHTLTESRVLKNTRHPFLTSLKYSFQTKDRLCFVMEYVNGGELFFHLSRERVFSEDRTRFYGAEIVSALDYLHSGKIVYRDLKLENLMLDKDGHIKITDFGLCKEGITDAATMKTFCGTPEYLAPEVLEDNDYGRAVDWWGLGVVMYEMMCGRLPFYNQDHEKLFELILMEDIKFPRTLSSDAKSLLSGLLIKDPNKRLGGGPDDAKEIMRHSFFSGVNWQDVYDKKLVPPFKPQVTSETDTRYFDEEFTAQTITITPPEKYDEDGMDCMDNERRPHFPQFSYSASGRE
Chain of Casein kinase I isoform gamma-1 (Homo sapiens) (Q9HCP0 whole entry, looked up, the tested form may be a part, canonical isoform): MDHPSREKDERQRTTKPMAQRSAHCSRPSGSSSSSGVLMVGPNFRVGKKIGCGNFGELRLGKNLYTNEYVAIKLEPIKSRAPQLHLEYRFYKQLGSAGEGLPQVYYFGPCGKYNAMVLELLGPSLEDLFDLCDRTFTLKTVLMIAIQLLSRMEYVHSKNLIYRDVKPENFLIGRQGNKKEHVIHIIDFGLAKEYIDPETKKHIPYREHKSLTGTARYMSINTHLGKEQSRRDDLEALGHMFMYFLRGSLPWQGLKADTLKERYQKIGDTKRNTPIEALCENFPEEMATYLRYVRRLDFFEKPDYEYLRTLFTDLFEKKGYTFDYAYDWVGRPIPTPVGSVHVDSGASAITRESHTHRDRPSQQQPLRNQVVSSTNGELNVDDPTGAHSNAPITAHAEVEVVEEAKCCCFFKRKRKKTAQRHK
Chain of Dual specificity mitogen-activated protein kinase kinase 7 (Homo sapiens) (O14733 whole entry): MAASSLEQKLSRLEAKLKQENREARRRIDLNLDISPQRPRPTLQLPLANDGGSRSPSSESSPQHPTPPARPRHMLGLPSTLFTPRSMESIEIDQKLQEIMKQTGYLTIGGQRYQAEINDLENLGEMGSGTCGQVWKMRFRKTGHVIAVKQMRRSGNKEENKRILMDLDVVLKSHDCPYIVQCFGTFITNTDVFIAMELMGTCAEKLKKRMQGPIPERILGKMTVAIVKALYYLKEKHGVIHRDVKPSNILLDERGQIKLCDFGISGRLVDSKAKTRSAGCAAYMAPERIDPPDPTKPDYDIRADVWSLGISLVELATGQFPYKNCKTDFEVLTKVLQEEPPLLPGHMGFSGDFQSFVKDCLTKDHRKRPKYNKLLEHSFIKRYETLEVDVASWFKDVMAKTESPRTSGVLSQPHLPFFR
Chain of Mitogen-activated protein kinase kinase kinase kinase 4 (Homo sapiens) (O95819 2-1239 limits assumed): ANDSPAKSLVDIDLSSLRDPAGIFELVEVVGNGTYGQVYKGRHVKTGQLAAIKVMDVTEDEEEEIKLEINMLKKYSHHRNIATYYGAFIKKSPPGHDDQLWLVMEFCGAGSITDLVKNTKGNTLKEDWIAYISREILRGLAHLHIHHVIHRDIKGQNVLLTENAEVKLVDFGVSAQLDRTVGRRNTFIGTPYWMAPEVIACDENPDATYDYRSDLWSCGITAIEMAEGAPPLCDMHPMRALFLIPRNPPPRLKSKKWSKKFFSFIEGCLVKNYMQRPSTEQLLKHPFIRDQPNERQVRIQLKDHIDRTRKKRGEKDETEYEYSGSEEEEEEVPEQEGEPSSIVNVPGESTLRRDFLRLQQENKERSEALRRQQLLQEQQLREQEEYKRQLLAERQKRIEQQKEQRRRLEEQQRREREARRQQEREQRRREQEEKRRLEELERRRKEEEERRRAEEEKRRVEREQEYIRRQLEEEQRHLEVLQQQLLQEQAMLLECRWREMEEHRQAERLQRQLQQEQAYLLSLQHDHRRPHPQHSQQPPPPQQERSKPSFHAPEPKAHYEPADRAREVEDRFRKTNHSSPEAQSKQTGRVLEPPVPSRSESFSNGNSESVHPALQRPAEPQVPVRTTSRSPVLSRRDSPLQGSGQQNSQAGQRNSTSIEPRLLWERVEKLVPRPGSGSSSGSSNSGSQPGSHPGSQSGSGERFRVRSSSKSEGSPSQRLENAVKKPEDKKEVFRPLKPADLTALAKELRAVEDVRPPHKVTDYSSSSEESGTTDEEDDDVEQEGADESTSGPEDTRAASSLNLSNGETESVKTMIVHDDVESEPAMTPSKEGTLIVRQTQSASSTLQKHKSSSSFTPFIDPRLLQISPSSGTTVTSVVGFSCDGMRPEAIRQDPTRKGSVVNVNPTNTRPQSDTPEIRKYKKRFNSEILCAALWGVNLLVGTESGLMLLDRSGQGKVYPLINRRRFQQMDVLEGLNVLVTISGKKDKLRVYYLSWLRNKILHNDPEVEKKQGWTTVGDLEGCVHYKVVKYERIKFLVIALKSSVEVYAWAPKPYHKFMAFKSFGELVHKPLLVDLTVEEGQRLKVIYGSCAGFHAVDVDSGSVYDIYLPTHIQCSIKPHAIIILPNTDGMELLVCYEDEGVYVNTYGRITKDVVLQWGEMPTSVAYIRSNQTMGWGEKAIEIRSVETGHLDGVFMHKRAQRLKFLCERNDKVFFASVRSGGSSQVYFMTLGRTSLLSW
Chain of Phosphatidylinositol 4-phosphate 3-kinase C2 domain-containing subunit beta (Homo sapiens) (O00750 whole entry, the tested form may be a part): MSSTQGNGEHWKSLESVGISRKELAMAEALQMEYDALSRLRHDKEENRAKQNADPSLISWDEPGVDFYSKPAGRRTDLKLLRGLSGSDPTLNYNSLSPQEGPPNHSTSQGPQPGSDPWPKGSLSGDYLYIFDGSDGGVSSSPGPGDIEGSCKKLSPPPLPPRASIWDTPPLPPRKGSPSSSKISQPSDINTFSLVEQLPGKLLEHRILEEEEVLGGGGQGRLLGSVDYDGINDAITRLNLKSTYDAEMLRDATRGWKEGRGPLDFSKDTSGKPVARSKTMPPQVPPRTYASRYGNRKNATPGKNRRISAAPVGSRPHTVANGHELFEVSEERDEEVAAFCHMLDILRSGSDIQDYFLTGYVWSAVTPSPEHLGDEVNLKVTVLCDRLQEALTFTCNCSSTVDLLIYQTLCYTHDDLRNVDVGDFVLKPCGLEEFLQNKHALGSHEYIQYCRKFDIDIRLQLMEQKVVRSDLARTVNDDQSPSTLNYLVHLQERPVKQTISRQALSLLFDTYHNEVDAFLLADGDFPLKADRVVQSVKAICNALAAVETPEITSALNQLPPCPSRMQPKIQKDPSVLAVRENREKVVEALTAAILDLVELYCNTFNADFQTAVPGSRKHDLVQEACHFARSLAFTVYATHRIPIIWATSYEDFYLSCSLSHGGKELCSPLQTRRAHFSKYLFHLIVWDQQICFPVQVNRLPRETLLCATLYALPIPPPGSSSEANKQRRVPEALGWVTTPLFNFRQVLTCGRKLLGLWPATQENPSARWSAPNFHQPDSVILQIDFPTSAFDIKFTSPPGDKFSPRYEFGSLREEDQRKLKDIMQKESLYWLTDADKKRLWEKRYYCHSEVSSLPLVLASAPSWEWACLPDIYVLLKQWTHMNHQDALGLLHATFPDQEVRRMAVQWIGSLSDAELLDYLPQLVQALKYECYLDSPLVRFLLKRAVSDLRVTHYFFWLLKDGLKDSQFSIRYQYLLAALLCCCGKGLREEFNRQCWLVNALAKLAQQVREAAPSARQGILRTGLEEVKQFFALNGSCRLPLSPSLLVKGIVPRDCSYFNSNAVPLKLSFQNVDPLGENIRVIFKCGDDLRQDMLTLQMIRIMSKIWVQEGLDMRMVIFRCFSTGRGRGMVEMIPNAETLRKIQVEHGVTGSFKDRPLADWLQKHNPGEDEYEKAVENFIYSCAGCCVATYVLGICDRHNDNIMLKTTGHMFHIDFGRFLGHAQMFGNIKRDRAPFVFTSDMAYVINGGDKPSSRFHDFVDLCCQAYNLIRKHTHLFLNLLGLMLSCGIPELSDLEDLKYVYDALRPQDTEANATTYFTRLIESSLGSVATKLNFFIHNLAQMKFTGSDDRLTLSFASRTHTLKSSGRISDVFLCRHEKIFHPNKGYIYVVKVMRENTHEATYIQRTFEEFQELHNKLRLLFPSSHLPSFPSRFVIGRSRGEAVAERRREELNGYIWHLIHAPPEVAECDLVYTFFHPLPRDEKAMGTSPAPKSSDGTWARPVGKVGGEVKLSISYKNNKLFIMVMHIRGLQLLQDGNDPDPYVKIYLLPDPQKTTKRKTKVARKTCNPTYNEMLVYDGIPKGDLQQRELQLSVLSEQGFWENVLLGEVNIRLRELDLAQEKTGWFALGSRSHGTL

Cc1c(NC(=O)c2cc(C(N)=O)nc3cc(F)ccc23)c(C(F)(F)F)nn1Cc1ccc(C#N)cc1 [BAY-876]
inactive: residual activity [1] 78% | residual activity [2] 93% | residual activity [3] 91% | residual activity [4] 97% | residual activity [5] 80% | residual activity [6] 96% | residual activity [7] 100% | residual activity [8] 81% | inhibition [9] -4.15% | residual activity [10] 72% | residual activity [11] 79% | residual activity [12] 81% | residual activity [13] 86% | residual activity [14] 96% | residual activity [15] 84% | residual activity [16] 92% | residual activity [17] 100% | residual activity [18] 100% | residual activity [19] 87% | residual activity [20] 80% | residual activity [21] 72% | residual activity [22] 95% | residual activity [23] 82% | residual activity [24] 99% | residual activity [25] 71% | residual activity [26] 100% | residual activity [27] 100% | residual activity [28] 81% | residual activity [29] 64% | residual activity [30] 89% | residual activity [31] 84% | inhibition [32] -0.745% | residual activity [33] 92% | residual activity [34] 85% | residual activity [35] 85% | residual activity [36] 81% | residual activity [37] 91% | residual activity [38] 88% | residual activity [39] 100% | inhibition [40] 14.3% | residual activity [41] 61% | residual activity [42] 89% | residual activity [43] 100% | inhibition [44] -6.5% | residual activity [45] 100%

Cc1c(NC(=O)c2cc(C(N)=O)nc3cc(F)ccc23)c(C(F)(F)F)nn1Cc1ccc(C(C)(C)C)cc1 [BAY-588]
inactive: residual activity [1] 100% | residual activity [2] 96% | residual activity [3] 100% | residual activity [4] 100% | residual activity [5] 87% | residual activity [6] 90% | residual activity [7] 100% | residual activity [8] 86% | inhibition [9] 8.69% | residual activity [10] 100% | residual activity [11] 100% | residual activity [12] 91% | residual activity [13] 100% | residual activity [14] 100% | residual activity [15] 76% | residual activity [16] 96% | residual activity [17] 100% | residual activity [18] 100% | residual activity [19] 100% | residual activity [20] 100% | residual activity [21] 100% | residual activity [22] 100% | residual activity [23] 85% | residual activity [24] 100% | residual activity [25] 100% | residual activity [26] 88% | residual activity [27] 89% | residual activity [28] 100% | residual activity [29] 100% | residual activity [30] 76% | residual activity [31] 87% | inhibition [32] 2.11% | residual activity [33] 100% | residual activity [34] 88% | residual activity [35] 100% | residual activity [36] 100% | residual activity [37] 80% | residual activity [38] 90% | residual activity [39] 100% | inhibition [40] -0.878% | residual activity [41] 100% | residual activity [42] 97% | residual activity [43] 100% | inhibition [44] 1.86% | residual activity [45] 95%

— ChEMBL document CHEMBL4507267 (2021)
